We go through eleven compounds from US7858635B2 (priority 2005, dated 2010).

Molecules are shown by their SMILES. Where two headings read alike, the source gives them in different places. Where only a bound is given, the exact number is not on record here.

Experiment [1] concerns the target T1, M1 muscarinic receptor (Homo sapiens, UniProt P11229).
T1 construct: expressed in transfected cells; host or cells: CHO cells (M1-CHO, under zeocin and G418 selection)
T1 sequence (P11229 1-460): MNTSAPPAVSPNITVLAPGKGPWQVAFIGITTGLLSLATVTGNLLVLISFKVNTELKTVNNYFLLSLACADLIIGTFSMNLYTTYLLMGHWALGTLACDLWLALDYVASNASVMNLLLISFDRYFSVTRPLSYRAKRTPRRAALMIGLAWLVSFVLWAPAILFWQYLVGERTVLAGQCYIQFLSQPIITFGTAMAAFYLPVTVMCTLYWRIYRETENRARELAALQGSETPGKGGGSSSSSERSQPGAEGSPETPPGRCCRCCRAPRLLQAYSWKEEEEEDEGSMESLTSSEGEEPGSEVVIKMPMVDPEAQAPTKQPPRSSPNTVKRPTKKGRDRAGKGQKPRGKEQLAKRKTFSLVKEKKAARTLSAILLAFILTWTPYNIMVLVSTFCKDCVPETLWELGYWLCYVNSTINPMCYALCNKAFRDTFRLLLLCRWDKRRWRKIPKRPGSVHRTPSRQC
As to the kind of experiment: Functional mobilization of intracellular calcium (FLIPR, Fluo-3), M1-CHO cells. Format: cell-based. The settings on record: for Emax: 100% efficacy is the maximum response obtained with the Carbachol control, read-out: M1 Efficacy. A digest of the protocol:
(§1)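 Intracellular calcium was tracked by fluorescence (488/540 nm) over 60 sec after compound addition to dye-loaded CHO cells expressing the receptor. Inhibitory activity used a 15 min pre-incubation before carbachol at the subtype EC80.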
(In general: A change in cytosolic calcium serves as a functional read-out for many receptors and channels.)

The target in experiment [2] is T2, M4 muscarinic receptor (Homo sapiens, UniProt P08173).
T2 construct: expressed in transfected cells; host or cells: CHO cells (M4-CHO, under puromycin, zeocin and blasticidin selection)
T2 sequence (P08173 1-479): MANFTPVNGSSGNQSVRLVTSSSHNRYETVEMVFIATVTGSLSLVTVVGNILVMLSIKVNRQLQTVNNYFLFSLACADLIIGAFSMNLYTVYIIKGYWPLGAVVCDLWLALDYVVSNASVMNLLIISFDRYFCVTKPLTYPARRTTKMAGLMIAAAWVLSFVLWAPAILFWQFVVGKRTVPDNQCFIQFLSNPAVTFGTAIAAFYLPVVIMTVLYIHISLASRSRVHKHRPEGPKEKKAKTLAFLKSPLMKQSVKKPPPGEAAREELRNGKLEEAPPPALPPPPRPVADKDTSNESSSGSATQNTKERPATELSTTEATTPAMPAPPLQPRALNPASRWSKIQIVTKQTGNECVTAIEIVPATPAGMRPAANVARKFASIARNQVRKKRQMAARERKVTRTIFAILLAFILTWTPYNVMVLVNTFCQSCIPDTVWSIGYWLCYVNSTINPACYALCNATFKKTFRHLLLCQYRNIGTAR
Put plainly: Functional mobilization of intracellular calcium (FLIPR, Fluo-3), M4-CHO cells. Format: cell-based. Particulars: for Emax: 100% efficacy is the maximum response obtained with the Carbachol control, read-out: M4 Efficacy. The gist of the method: as §1

Setting [3] is: compound nos. 1-454, M1-CHO cells, calcium mobilization.
Where [4] appears, read: compound nos. 1-454, M4-CHO cells, calcium mobilization.

On to `O=C(OCC(F)F)N1C2CCC1CC(N1CCC3(CC1)COc1ccc(F)cc13)C2` (centres unmarked) [compound 186], for which the Emax is greater than 85% in experiment [1] (compound nos. 1-454) and 55 to 70% in experiment [2] (compound nos. 1-454). Besides, in experiment [1] (setting [3]), the “M1 Activity” value is recorded as “+++ (activity was measured to be less than or equal to 0.7 μM)”. Also, the “M4 Activity” value in experiment [2] (setting [4]) is “+ (activity was measured to be greater than or equal to 4.0 μM)”.

On to `CC(=O)N1CC2(CCN(C3CCC[C@@H](C)C3)CC2)c2cc(F)ccc21` (some centres unmarked) [compound 240], for which the Emax is 65 to 85% in experiment [1] (compound nos. 1-454) and greater than 70% in experiment [2] (compound nos. 1-454). Also, in experiment [1] (setting [3]), the “M1 Activity” value was “++ (activity was measured to be between 0.7 μM and 3.0 μM)”. In experiment [2] (setting [4]), the “M4 Activity” value is reported as “+ (activity was measured to be greater than or equal to 4.0 μM)”.

Take `COC(=O)N1C2CCC1CC(N1CCC3(CC1)COc1ccc(F)cc13)C2` (centres unmarked) [compound 156]: the Emax was 65 to 85% in experiment [1] (compound nos. 1-454) and greater than 70% in experiment [2] (compound nos. 1-454). Also, the “M1 Activity” value in experiment [1] (setting [3]) is given as “+++ (activity was measured to be less than or equal to 0.7 μM)”. The “M4 Activity” value in experiment [2] (setting [4]) is “+++ (activity was measured to be less than or equal to 0.1 μM)”.

In the case of `CN(C)C(=O)N1CC2(CCN(C3CCN(c4ncns4)CC3)CC2)c2ccccc21` [compound 506], the results for the Emax in experiment [1] (compound nos. 455-509) and in experiment [2] (compound nos. 455-509) were greater than 100% and 25 to 100%, respectively. In experiment [1] (compounds 455-509), the “M1 Activity” value was “++ (activity was measured to be between 2.0 μM and 5.0 μM)”. In addition, the “M4 Activity” value in experiment [2] (compounds 455-509) is “++ (activity was measured to be between 2.0 μM and 5.0 μM)”.

For the compound `CCOC(=O)N1C2CCC1CC(N1CCC3(CC1)c1ccccc1C(=O)C3(C)C)C2` (centres unmarked) [compound 278], the Emax was in the range of 65 to 85% in experiment [1] (compound nos. 1-454) and 55 to 70% in experiment [2] (compound nos. 1-454). Besides, the “M1 Activity” value in experiment [1] (setting [3]) was “++ (activity was measured to be between 0.7 μM and 3.0 μM)”. The “M4 Activity” value in experiment [2] (setting [4]) was “++ (activity was measured to be between 0.1 μM and 4.0 μM)”.

On to `Cc1csc(N2CCC(N3CCC4(CCN(C(=O)N(C)C)c5ccccc54)CC3)CC2)n1` [compound 508], for which the Emax in experiment [1] (compound nos. 455-509) and in experiment [2] (compound nos. 455-509) was 25 to 100% each time. Moreover, in experiment [1] (compounds 455-509), the “M1 Activity” value was “++ (activity was measured to be between 2.0 μM and 5.0 μM)”. Moreover, the “M4 Activity” value in experiment [2] (compounds 455-509) was “++ (activity was measured to be between 2.0 μM and 5.0 μM)”.

As for `CN(C)C(=O)N1CC2(CCN(C3CCN(c4cncc(Cl)n4)CC3)CC2)c2ccccc21` [compound 469], the Emax in experiment [1] (compound nos. 455-509) was greater than 100%; in experiment [2] (compound nos. 455-509) it was 25 to 100%. Moreover, the “M1 Activity” value in experiment [1] (compounds 455-509) is “+++ (activity was measured to be less than or equal to 2.0 μM)”. In addition, the “M4 Activity” value in experiment [2] (compounds 455-509) was “++ (activity was measured to be between 2.0 μM and 5.0 μM)”.

For the compound `CCOC(=O)N1CCC(N2CCC3(CC2)CN(C(=O)c2ccccc2C)c2ccc(F)cc23)CC1` [compound 53], the Emax in experiment [1] (compound nos. 1-454) was less than 65%; in experiment [2] (compound nos. 1-454), 55 to 70%. For the same compound, the “M1 Activity” value in experiment [1] (setting [3]) is “++ (activity was measured to be between 0.7 μM and 3.0 μM)”. Moreover, the “M4 Activity” value in experiment [2] (setting [4]) is “++ (activity was measured to be between 0.1 μM and 4.0 μM)”.

As to `Cc1cc(C(=O)N2CC3(CCN(C4CC5CCC(C4)N5C(=O)OC(C)C)CC3)c3cc(F)ccc32)nn1C` (centres unmarked) [compound 24], the Emax was less than 65% in experiment [1] (compound nos. 1-454) and less than 55% in experiment [2] (compound nos. 1-454). For the same compound, the “M1 Activity” value in experiment [1] (setting [3]) is “++ (activity was measured to be between 0.7 μM and 3.0 μM)”. Moreover, the “M4 Activity” value in experiment [2] (setting [4]) was “+ (activity was measured to be greater than or equal to 4.0 μM)”.

`CN(C)C(=O)N1CC2(CCN(C3CCN(c4cnc(Br)cn4)CC3)CC2)c2ccccc21` [compound 509]: the Emax is greater than 100% in experiment [1] (compound nos. 455-509) and 25 to 100% in experiment [2] (compound nos. 455-509). The “M1 Activity” value in experiment [1] (compounds 455-509) is “++ (activity was measured to be between 2.0 μM and 5.0 μM)”. Also, the “M4 Activity” value in experiment [2] (compounds 455-509) is “++ (activity was measured to be between 2.0 μM and 5.0 μM)”.

On to `CCCOC(=O)N1C2CCC1CC(N1CCC3(CC1)CN(C(=O)N(C)C)c1ccc(F)cc13)C2` (centres unmarked) [compound 360], for which the Emax was 65 to 85% in experiment [1] (compound nos. 1-454) and less than 55% in experiment [2] (compound nos. 1-454). Further, the “M1 Activity” value in experiment [1] (setting [3]) is “++ (activity was measured to be between 0.7 μM and 3.0 μM)”. For the same compound, the “M4 Activity” value in experiment [2] (setting [4]) is “+ (activity was measured to be greater than or equal to 4.0 μM)”.
